Like-named read-outs stand apart in the source and are kept apart here.
Experiments:
[1] = test system: iPS(Foreskin)-4-derived d8 HPTC-like cells
PTC in humans = details: cited from earlier work
[2] = 1 μg/ml, overnight (16 h), qPCR, normalized to vehicle control (=1), mean +/- s.d., n=3
[3] = 10 μg/ml, overnight (16 h), qPCR, normalized to vehicle control (=1), mean +/- s.d., n=3
[4] = 100 μg/ml, overnight (16 h), qPCR, normalized to vehicle control (=1), mean +/- s.d., n=3
[5] = 1,000 μg/ml, overnight (16 h), qPCR, normalized to vehicle control (=1), mean +/- s.d., n=3

SMILES	IL6 Expression Levels ([1]; human, 16 h, 1 μg/ml)	IL8 Expression Levels ([1]; human, 16 h, 1 μg/ml)	IL6 Expression Levels ([1]; human, 16 h, 10 μg/ml)	IL8 Expression Levels ([1]; human, 16 h, 10 μg/ml)	IL6 Expression Levels ([1]; human, 16 h, 100 μg/ml)	IL8 Expression Levels ([1]; human, 16 h, 100 μg/ml)	IL6 Expression Levels ([1]; human, 16 h, 1000 μg/ml)	IL8 Expression Levels ([1]; human, 16 h, 1000 μg/ml)	IL6 Expression Levels [1, 2]	IL8 Expression Levels [1, 2]	IL6 Expression Levels [1, 3]	IL8 Expression Levels [1, 3]	IL6 Expression Levels [1, 4]	IL8 Expression Levels [1, 4]	IL6 Expression Levels [1, 5]	IL8 Expression Levels [1, 5]	other results
O=c1[nH]cc(F)c(=O)[nH]1 [5-Fluorouracil]	6.2 ± 0.7	7.4 ± 1.4	6.4 ± 0.3	9.2 ± 1.4	9.2 ± 1.2	18.3 ± 2.2	1.1 ± 0.2	5.7 ± 0.5	–	–	–	–	–	–	–	–	–
C[C@H]1O[C@H](O[C@H]2[C@H](O)[C@@H](O)[C@@H](O[C@H]3[C@H](O)[C@@H](O)C(O)O[C@@H]3CO)O[C@@H]2CO)[C@H](O)[C@@H](O)[C@@H]1N[C@H]1C=C(CO)[C@@H](O)[C@H](O)[C@H]1O (stereo partly shown) [Acarbose]	1.2 ± 0.1	0.5 ± 0.1	1.5 ± 0.3	0.6 ± 0.2	1.3 ± 0.2	0.4 ± 0.1	1.4 ± 0.4	1.6 ± 0.2	–	–	–	–	–	–	–	–	–
CC(=O)Nc1ccc(O)cc1 [Acetaminophen]	1.3 ± 0.0	0.8 ± 0.3	1.2 ± 0.1	1.2 ± 0.2	1.4 ± 0.2	0.5 ± 0.1	0.3 ± 0.1	0.1 ± 0.0	–	–	–	–	–	–	–	–	–
COc1cccc2c1cc([N+](=O)[O-])c1c(C(=O)O)cc3c(c12)OCO3 [Aristolochic acid]	–	–	–	–	–	–	–	–	3.9 ± 0.5	5.0 ± 0.8	3.3 ± 0.2	4.8 ± 0.6	7.3 ± 1.6	43.5 ± 7.2	9.3 ± 0.5	1.6 ± 0.9	–
O=[As]O[As]=O (stereo not shown) [Arsenic (III) oxide]	–	–	–	–	–	–	–	–	1.5 ± 0.1	1.2 ± 0.5	5.2 ± 0.1	4.2 ± 0.1	14.2 ± 2.1	1.5 ± 0.2	8.2 ± 0.3	3.9 ± 1.6	–
[Bi+3].[Bi+3].[O-2].[O-2].[O-2] [Bismuth (III) oxide]	–	–	–	–	–	–	–	–	1.2 ± 0.1	0.4 ± 0.1	1.3 ± 0.2	2.6 ± 0.2	2.1 ± 0.1	33.0 ± 1.6	3.6 ± 0.3	192.7 ± 18.4	–
[Cl][Cd][Cl] [Cadmium chloride]	–	–	–	–	–	–	–	–	3.6 ± 0.4	15.0 ± 0.8	10.9 ± 0.4	7.6 ± 0.4	10.3 ± 1.6	4.4 ± 0.6	11.8 ± 0.5	20.5 ± 8.3	–
CC(=O)OCC1=C(C(=O)O)N2C(=O)[C@@H](NC(=O)CCC[C@@H](N)C(=O)O)[C@H]2SC1 [Cephalosporin C]	–	–	–	–	–	–	–	–	–	–	–	–	–	–	–	–	nephrotoxicity / toxicity for PTC in humans (PTC in humans): directly toxic for PTC
CC1=C2C(=CO[C@H](C)[C@H]2C)C(O)=C(C(=O)O)C1=O [Citrinin]	–	–	–	–	–	–	–	–	–	–	–	–	–	–	–	–	increase of IL6 expression ([1]; human): ~6 fold; increase of IL8 expression ([1]; human): no increase in IL8 expression was observed; nephrotoxicity / toxicity for PTC in humans (PTC in humans): directly toxic for PTC
[Cl][Cu][Cl] [Copper (II) chloride]	–	–	–	–	–	–	–	–	1.2 ± 0.1	7.2 ± 0.6	2.2 ± 0.2	67.1 ± 18.1	22.5 ± 2.2	58.2 ± 3.2	13.4 ± 0.0	–	–
OCCO [Ethylene glycol]	–	–	–	–	–	–	–	–	–	–	–	–	–	–	–	–	nephrotoxicity / toxicity for PTC in humans (PTC in humans): nephrotoxicants that do not damage PTC directly
NCC(=O)O [Glycine]	1.6 ± 0.1	1.6 ± 0.6	1.9 ± 0.3	3.1 ± 1.5	1.7 ± 0.2	2.5 ± 0.6	1.9 ± 0.2	4.9 ± 1.9	–	–	–	–	–	–	–	–	–
[Cl][Au] [Gold (I) chloride]	–	–	–	–	–	–	–	–	1.2 ± 0.2	0.9 ± 0.2	1.2 ± 0.1	0.9 ± 0.1	2.9 ± 0.2	2.0 ± 0.0	23.3 ± 0.4	1.2 ± 0.2	–
CC(=O)[O-].CC(=O)[O-].[Pb+2] [Lead acetate]	–	–	–	–	–	–	–	–	1.3 ± 0.3	0.4 ± 0.2	1.2 ± 0.3	1.3 ± 0.1	1.5 ± 0.1	5.0 ± 0.8	4.3 ± 0.8	29.4 ± 5.1	–
CCC[C@@H]1C[C@@H](C(=O)N[C@@H]([C@H]2O[C@H](SC)[C@H](O)[C@@H](O)[C@H]2O)[C@@H](C)O)N(C)C1 [Lincomycin]	1.2 ± 0.1	1.2 ± 1.2	1.3 ± 0.1	1.2 ± 0.3	1.2 ± 0.1	2.4 ± 0.9	1.4 ± 0.2	6.1 ± 0.5	–	–	–	–	–	–	–	–	–
Cl[C@H]1[C@H](Cl)[C@@H](Cl)[C@@H](Cl)[C@H](Cl)[C@H]1Cl [Lindane]	–	–	–	–	–	–	–	–	–	–	–	–	–	–	–	–	nephrotoxicity / toxicity for PTC in humans (PTC in humans): nephrotoxicants that do not damage PTC directly
[Cl-].[Li+] [Lithium chloride]	–	–	–	–	–	–	–	–	–	–	–	–	–	–	–	–	nephrotoxicity / toxicity for PTC in humans (PTC in humans): nephrotoxicants that do not damage PTC directly
COc1ccc2[nH]cc(CCNC(C)=O)c2c1 [Melatonin]	6.5 ± 0.8	9.8 ± 2.4	6.1 ± 0.4	6.9 ± 1.0	4.4 ± 0.4	1.9 ± 0.9	1.1 ± 0.1	–	–	–	–	–	–	–	–	–	–
CCOc1ccc(NC(C)=O)cc1 [Phenacetin]	7.2 ± 0.2	23.3 ± 3.1	7.0 ± 1.1	11.1 ± 0.8	5.3 ± 0.1	7.7 ± 4.7	0.7 ± 0.2	6.4 ± 2.1	–	–	–	–	–	–	–	–	–
[K+].[K+].[O]=[Cr](=[O])([O-])[O][Cr](=[O])(=[O])[O-] [Potassium dichromate]	–	–	–	–	–	–	–	–	1.2 ± 0.4	0.5 ± 0.0	1.0 ± 0.0	0.7 ± 0.1	3.3 ± 0.3	0.8 ± 0.0	3.7 ± 0.4	1.2 ± 0.0	–
COc1ccc(C[C@H](N)C(=O)N[C@H]2[C@@H](O)[C@H](n3cnc4c(N(C)C)ncnc43)O[C@@H]2CO)cc1 [Puromycin]	1.9 ± 0.2	0.8 ± 0.2	14.1 ± 1.2	255.7 ± 28.2	29.0 ± 1.2	3,284.1 ± 1,069.3	26.6 ± 4.3	3,852.3 ± 309.9	–	–	–	–	–	–	–	–	–
NC(=O)c1ncn([C@@H]2O[C@H](CO)[C@@H](O)[C@H]2O)n1 [Ribavirin]	1.4 ± 0.1	1.1 ± 0.4	1.5 ± 0.1	0.5 ± 0.1	1.2 ± 0.3	0.2 ± 0.0	1.0 ± 0.1	0.2 ± 0.0	–	–	–	–	–	–	–	–	–
C=CC[C@@H]1/C=C(\C)C[C@H](C)C[C@H](OC)[C@H]2O[C@@](O)(C(=O)C(=O)N3CCCC[C@H]3C(=O)O[C@H](/C(C)=C/[C@@H]3CC[C@@H](O)[C@H](OC)C3)[C@H](C)[C@@H](O)CC1=O)[C@H](C)C[C@@H]2OC [Tacrolimus]	6.6 ± 0.6	7.8 ± 0.4	6.1 ± 0.2	5.1 ± 0.6	–	–	–	–	–	–	–	–	–	–	–	–	–
NC[C@H]1O[C@H](O[C@H]2[C@H](O)[C@@H](O[C@H]3O[C@H](CO)[C@@H](O)[C@H](N)[C@H]3O)[C@H](N)C[C@@H]2N)[C@H](N)C[C@@H]1O [Tobramycin]	1.3 ± 0.1	0.5 ± 0.1	1.3 ± 0.1	0.6 ± 0.1	1.4 ± 0.1	0.9 ± 0.3	2.7 ± 0.4	25.5 ± 1.5	–	–	–	–	–	–	–	–	–
CC(C)[C@H](N)C(=O)OCCOCn1cnc2c(=O)[nH]c(N)nc21 [Valacyclovir]	1.3 ± 0.1	1.5 ± 0.1	1.3 ± 0.1	1.4 ± 0.1	1.6 ± 0.1	1.0 ± 0.5	2.8 ± 0.4	32.5 ± 1.4	–	–	–	–	–	–	–	–	–
CN[C@H](CC(C)C)C(=O)N[C@H]1C(=O)N[C@@H](CC(N)=O)C(=O)N[C@H]2C(=O)N[C@H]3C(=O)N[C@H](C(=O)N[C@H](C(=O)O)c4cc(O)cc(O)c4-c4cc3ccc4O)[C@H](O)c3ccc(c(Cl)c3)Oc3cc2cc(c3O[C@@H]2O[C@H](CO)[C@@H](O)[C@H](O)[C@H]2O[C@H]2C[C@](C)(N)[C@H](O)[C@H](C)O2)Oc2ccc(cc2Cl)[C@H]1O [Vancomycin]	–	–	–	–	–	–	–	–	1.5 ± 0.3	0.7 ± 0.0	1.4 ± 0.1	0.6 ± 0.2	1.4 ± 0.1	2.9 ± 0.2	3.1 ± 0.2	98.5 ± 4.5	–
